From ChEMBL document CHEMBL5291721, “A preclinical secondary pharmacology resource illuminates target-adverse drug reaction associations of marketed drugs” (Nat Commun, 2023)

Legend:
[1] = molecular target: Beta-3 adrenergic receptor (Homo sapiens, UniProt P13945)
[2] = molecular target: T1, Corticotropin-releasing factor receptor 1 (Homo sapiens, UniProt P34998)
T1 sequence (P34998 whole entry): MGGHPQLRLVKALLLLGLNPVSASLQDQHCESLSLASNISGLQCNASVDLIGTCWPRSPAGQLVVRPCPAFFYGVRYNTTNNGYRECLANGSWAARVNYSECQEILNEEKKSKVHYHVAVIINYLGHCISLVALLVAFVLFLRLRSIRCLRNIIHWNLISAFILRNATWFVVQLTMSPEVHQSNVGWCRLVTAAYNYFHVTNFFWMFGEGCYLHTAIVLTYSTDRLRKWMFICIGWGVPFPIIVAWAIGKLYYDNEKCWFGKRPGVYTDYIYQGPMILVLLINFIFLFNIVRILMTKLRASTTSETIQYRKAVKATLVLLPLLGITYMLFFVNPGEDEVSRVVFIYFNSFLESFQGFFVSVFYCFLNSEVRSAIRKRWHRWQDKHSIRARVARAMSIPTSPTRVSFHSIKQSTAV

[3] = molecular target: T2, Endothelin receptor type B (Homo sapiens, UniProt P24530)
T2 sequence (P24530 whole entry): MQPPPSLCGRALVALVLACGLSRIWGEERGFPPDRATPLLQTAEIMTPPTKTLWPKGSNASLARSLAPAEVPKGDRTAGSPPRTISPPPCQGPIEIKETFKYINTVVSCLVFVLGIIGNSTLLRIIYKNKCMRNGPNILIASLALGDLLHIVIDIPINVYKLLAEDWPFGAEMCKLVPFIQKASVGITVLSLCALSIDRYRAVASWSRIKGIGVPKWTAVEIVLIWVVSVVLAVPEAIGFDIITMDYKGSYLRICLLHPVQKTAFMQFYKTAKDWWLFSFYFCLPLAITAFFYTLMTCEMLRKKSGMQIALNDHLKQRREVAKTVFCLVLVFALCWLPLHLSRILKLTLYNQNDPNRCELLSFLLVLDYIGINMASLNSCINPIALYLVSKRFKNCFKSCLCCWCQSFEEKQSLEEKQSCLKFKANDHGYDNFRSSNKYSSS

[4] = molecular target: T3, Corticotropin-releasing factor receptor 2 (Homo sapiens, UniProt Q13324)
T3 sequence (Q13324 whole entry): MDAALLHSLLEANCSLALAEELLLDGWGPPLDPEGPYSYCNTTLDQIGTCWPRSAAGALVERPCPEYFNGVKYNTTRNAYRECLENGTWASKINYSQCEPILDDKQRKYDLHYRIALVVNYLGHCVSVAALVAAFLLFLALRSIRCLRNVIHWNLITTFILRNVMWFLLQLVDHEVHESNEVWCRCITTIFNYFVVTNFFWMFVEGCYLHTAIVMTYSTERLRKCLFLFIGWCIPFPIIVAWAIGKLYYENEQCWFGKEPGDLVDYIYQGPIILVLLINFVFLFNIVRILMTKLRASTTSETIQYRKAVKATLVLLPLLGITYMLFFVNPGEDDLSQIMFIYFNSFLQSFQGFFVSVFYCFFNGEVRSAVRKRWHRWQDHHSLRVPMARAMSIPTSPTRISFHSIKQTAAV

D(1A) dopamine receptor = D(1A) dopamine receptor (Homo sapiens, UniProt P21728)
[5] = molecular target: T4, Muscarinic acetylcholine receptor M2 (Homo sapiens, UniProt P08172)
T4 sequence (P08172 whole entry): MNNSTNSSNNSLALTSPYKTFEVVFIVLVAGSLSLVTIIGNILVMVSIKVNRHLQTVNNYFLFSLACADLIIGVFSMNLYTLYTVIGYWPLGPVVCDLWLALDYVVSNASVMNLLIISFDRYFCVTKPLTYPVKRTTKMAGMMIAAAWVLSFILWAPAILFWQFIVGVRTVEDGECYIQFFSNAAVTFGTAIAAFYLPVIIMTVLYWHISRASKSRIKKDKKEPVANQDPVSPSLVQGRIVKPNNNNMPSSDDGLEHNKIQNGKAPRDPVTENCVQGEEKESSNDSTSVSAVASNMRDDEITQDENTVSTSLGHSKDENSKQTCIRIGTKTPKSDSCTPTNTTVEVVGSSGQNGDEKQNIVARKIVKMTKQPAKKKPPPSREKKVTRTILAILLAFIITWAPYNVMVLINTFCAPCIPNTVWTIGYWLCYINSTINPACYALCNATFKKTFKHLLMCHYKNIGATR

Estrogen receptor beta = Estrogen receptor beta (Homo sapiens, UniProt Q92731)
[6] = molecular target: T5, 5-hydroxytryptamine receptor 1A (Homo sapiens, UniProt P08908)
T5 sequence (P08908 whole entry): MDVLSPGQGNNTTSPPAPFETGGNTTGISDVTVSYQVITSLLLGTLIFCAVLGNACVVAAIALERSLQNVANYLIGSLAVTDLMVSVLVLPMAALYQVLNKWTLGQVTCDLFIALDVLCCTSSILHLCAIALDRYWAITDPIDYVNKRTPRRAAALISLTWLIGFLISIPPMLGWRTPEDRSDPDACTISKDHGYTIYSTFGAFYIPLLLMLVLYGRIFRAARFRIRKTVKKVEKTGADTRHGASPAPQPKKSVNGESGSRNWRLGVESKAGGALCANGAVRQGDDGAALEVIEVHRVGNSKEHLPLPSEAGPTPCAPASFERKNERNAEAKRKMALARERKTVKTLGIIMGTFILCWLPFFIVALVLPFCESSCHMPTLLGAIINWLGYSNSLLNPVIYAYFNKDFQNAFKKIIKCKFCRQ

B1 bradykinin receptor = molecular target: T6, B1 bradykinin receptor (Homo sapiens, UniProt P46663)
T6 sequence (P46663 whole entry): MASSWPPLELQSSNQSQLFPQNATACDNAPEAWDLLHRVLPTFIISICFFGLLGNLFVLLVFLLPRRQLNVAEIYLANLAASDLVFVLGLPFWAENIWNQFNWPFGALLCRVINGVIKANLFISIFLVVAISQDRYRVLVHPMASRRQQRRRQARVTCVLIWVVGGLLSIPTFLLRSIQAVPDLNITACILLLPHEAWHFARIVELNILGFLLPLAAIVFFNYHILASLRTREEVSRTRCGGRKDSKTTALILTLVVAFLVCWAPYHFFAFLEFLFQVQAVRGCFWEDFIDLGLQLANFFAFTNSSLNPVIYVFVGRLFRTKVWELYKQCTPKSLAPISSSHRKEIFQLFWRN

[7] = molecular target: T7, Gamma-aminobutyric acid receptor subunit alpha-1/alpha-2/beta-2/gamma-2 (Homo sapiens, UniProt P14867+P18507+P47869+P47870); format: functional, cell-based
[8] = molecular target: T7, Gamma-aminobutyric acid receptor subunit alpha-1/alpha-2/beta-2/gamma-2; format: functional, cell-based; remark: listed apart in the source
Note: assay procedure not described here.

Sequence of Estrogen receptor beta (Q92731 whole entry): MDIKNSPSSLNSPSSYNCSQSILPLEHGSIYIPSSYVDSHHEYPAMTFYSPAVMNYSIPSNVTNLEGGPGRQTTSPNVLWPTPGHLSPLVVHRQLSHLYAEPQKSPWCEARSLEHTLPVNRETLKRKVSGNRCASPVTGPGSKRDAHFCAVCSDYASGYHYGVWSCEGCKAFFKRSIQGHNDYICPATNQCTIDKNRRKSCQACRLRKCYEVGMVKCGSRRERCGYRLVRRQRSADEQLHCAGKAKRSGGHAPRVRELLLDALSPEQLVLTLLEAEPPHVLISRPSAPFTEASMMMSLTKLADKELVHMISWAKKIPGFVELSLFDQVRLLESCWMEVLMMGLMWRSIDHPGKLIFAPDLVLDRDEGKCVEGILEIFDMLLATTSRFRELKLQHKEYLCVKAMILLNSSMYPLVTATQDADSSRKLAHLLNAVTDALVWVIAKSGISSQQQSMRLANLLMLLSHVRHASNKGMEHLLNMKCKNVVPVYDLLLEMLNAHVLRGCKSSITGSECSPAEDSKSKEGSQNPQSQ
Sequence of Beta-3 adrenergic receptor (P13945 whole entry): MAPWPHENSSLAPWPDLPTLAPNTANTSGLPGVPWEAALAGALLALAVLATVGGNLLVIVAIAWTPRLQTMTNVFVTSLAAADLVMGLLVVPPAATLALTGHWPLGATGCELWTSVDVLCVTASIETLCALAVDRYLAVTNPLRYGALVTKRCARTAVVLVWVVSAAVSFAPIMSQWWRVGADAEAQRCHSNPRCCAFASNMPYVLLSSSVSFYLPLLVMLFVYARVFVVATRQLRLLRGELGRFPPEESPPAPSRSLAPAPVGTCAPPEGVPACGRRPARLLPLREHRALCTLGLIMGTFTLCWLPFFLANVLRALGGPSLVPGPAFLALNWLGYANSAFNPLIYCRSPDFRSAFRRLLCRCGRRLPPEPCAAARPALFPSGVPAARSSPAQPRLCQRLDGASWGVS
Sequence of D(1A) dopamine receptor (P21728 whole entry): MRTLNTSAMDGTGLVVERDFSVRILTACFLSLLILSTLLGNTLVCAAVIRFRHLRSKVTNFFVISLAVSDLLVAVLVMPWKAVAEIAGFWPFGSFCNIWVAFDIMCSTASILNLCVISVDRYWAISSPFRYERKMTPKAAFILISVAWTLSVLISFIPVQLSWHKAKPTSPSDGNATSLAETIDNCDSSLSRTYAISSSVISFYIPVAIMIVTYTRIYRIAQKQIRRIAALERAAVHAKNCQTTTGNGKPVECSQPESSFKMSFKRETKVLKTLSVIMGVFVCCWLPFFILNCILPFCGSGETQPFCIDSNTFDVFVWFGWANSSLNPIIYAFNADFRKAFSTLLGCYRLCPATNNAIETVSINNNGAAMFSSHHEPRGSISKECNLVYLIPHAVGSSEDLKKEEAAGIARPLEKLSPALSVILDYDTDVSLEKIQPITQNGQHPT
T7 sequence (P14867 whole entry): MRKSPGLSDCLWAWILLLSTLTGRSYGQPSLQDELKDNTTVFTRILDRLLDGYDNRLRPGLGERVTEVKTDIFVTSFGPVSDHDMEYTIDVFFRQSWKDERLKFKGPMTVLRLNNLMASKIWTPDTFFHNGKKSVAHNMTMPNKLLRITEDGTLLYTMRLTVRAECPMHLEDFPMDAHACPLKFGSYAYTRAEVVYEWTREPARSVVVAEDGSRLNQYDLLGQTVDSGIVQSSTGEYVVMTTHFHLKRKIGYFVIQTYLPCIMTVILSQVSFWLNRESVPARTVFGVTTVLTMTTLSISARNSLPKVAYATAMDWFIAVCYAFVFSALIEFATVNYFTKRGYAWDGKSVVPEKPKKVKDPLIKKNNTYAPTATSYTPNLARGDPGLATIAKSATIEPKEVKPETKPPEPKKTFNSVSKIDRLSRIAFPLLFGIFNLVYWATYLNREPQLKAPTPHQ
T7 sequence (P47870 whole entry): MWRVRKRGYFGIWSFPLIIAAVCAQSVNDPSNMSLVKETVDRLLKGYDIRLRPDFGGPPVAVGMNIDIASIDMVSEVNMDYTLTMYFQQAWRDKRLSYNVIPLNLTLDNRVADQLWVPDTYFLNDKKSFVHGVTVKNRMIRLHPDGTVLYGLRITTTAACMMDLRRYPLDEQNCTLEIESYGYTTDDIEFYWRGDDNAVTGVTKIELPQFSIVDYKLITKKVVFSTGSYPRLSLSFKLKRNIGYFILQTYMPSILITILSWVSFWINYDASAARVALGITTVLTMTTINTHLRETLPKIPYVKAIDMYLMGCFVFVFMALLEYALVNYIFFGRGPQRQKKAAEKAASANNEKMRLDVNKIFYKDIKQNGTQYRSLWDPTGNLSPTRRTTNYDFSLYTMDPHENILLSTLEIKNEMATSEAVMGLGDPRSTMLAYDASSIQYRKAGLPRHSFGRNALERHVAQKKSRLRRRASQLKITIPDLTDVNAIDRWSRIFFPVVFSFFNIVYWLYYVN
T7 sequence (P18507 whole entry): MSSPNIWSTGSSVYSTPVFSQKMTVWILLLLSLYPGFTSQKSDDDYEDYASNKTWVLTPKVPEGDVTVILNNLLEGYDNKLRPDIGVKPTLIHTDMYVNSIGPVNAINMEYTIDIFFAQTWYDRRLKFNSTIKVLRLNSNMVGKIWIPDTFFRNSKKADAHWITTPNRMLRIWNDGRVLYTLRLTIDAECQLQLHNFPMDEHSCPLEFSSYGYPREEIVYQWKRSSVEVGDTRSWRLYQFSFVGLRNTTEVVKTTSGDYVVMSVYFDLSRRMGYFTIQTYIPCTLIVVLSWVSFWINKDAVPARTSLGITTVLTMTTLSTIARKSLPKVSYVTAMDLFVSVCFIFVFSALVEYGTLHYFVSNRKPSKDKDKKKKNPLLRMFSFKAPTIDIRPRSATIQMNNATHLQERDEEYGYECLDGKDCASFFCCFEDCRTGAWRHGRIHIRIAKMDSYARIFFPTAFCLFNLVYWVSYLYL
T7 sequence (P47869 whole entry): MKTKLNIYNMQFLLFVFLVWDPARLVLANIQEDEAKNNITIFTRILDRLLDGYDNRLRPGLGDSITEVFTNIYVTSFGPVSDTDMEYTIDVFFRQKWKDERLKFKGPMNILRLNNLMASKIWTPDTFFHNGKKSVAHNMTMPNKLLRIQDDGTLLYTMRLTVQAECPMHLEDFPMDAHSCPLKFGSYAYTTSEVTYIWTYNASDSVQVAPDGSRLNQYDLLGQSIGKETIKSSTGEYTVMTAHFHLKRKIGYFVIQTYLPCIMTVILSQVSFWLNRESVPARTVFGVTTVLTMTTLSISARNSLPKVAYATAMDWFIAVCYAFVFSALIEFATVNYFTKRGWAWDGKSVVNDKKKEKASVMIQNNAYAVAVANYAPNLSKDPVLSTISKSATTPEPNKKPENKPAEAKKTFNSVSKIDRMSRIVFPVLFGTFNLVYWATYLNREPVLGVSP

CC1=C(CC(=O)O)c2cc(F)ccc2/C1=C\c1ccc([S+](C)[O-])cc1 (centres undefined)
AC50 [1]: > 30 µM | AC50 [2]: > 30 µM | AC50 [3]: > 30 µM | AC50 [4]: > 30 µM | AC50 (D(1A) dopamine receptor): > 10 µM | AC50 [5]: > 10 µM | AC50 (Estrogen receptor beta): > 30 µM | AC50 [6]: > 10 µM | AC50 (B1 bradykinin receptor): > 30 µM

NS(=O)(=O)c1ccc(N2CCCCS2(=O)=O)cc1
AC50 [7]: > 30 µM | AC50 [8]: > 30 µM

O=C(O[C@H]1C[N+]2(CCCOc3ccccc3)CCC1CC2)C(O)(c1cccs1)c1cccs1 [ACLIDINIUM BROMIDE]
AC50 [2]: > 30 µM | AC50 [3]: > 30 µM | AC50 [4]: > 30 µM | AC50 (D(1A) dopamine receptor): > 10 µM | AC50 [6]: > 10 µM | AC50 (B1 bradykinin receptor): > 30 µM

Cc1nnc2n1-c1ccc(Cl)cc1C(c1ccccc1)=NC2 [ALPRAZOLAM]
AC50 [1]: > 30 µM | AC50 [2]: > 30 µM | AC50 [3]: > 30 µM | AC50 [4]: > 30 µM | AC50 (D(1A) dopamine receptor): > 10 µM | AC50 [5]: > 10 µM | AC50 (Estrogen receptor beta): > 30 µM | AC50 [6]: > 10 µM | AC50 (B1 bradykinin receptor): > 30 µM

COc1ccc(-n2nc(C(N)=O)c3c2C(=O)N(c2ccc(N4CCCCC4=O)cc2)CC3)cc1 [APIXABAN]
AC50 [7]: > 30 µM | AC50 [8]: > 30 µM

CCN(CC)CCCN(c1ccccc1)C1Cc2ccccc2C1 [APRINDINE]
AC50 [7]: > 30 µM | AC50 [8]: > 30 µM

CC(NC(C)(C)C)C(=O)c1cccc(Cl)c1 (centres undefined) [BUPROPION]
AC50 [1]: > 30 µM | AC50 [2]: > 30 µM | AC50 [3]: > 30 µM | AC50 [4]: > 30 µM | AC50 (D(1A) dopamine receptor): > 10 µM | AC50 [5]: > 10 µM | AC50 (Estrogen receptor beta): > 30 µM | AC50 [6]: > 10 µM | AC50 (B1 bradykinin receptor): > 30 µM

CC(=O)OCC1=C(C(=O)O)N2C(=O)[C@@H](NC(=O)Cc3cccs3)[C@H]2SC1 [CEPHALOTHIN]
AC50 [7]: > 30 µM | AC50 [8]: > 30 µM

CC1=C(C(=O)O)N2C(=O)[C@@H](NC(=O)[C@H](N)C3=CCC=CC3)[C@H]2SC1 [CEPHRADINE]
AC50 [7]: > 30 µM | AC50 [8]: > 30 µM

COc1ccc(C(Cl)=C(c2ccc(OC)cc2)c2ccc(OC)cc2)cc1 [CHLOROTRIANISENE]
AC50 [7]: > 30 µM | AC50 [8]: > 30 µM

Oc1cc(O)c2c(c1)O[C@H](c1ccc(O)c(O)c1)[C@@H](O)C2 [CIANIDANOL]
AC50 [1]: > 30 µM | AC50 [2]: > 30 µM | AC50 [3]: > 30 µM | AC50 [4]: > 30 µM | AC50 (D(1A) dopamine receptor): > 10 µM | AC50 [5]: > 10 µM | AC50 (Estrogen receptor beta): > 30 µM | AC50 [6]: > 10 µM | AC50 (B1 bradykinin receptor): > 30 µM

O=C1CN=C(c2ccccc2Cl)c2cc([N+](=O)[O-])ccc2N1 [CLONAZEPAM]
AC50 [1]: > 30 µM | AC50 [2]: > 30 µM | AC50 [3]: > 30 µM | AC50 [4]: > 30 µM | AC50 (D(1A) dopamine receptor): > 10 µM | AC50 [5]: > 10 µM | AC50 (Estrogen receptor beta): > 30 µM | AC50 [6]: > 10 µM | AC50 (B1 bradykinin receptor): > 30 µM

C=C(c1ccccc1OCc1cccc(Cl)c1)n1ccnc1 [CROCONAZOLE]
AC50 [6]: > 10 µM

CN(C)CCOC(=O)C(c1ccccc1)C1(O)CCCC1 (centres undefined) [CYCLOPENTOLATE]
AC50 [5]: 0.624 µM

CCCCCCOC(=O)NC(=N)c1ccc(NCc2nc3cc(C(=O)N(CCC(=O)OCC)c4ccccn4)ccc3n2C)cc1 [DABIGATRAN ETEXILATE]
AC50 [7]: > 30 µM | AC50 [8]: > 30 µM

CCN(CC)C(C)C(=O)c1ccccc1 (centres undefined) [DIETHYLPROPION]
AC50 [1]: > 30 µM | AC50 [2]: > 30 µM | AC50 [3]: > 30 µM | AC50 [4]: > 30 µM | AC50 (D(1A) dopamine receptor): > 10 µM | AC50 [5]: > 10 µM | AC50 [6]: > 10 µM | AC50 (B1 bradykinin receptor): > 30 µM

OCCN(CCO)c1nc(N2CCCCC2)c2nc(N(CCO)CCO)nc(N3CCCCC3)c2n1 [DIPYRIDAMOLE]
AC50 [1]: > 30 µM

CCN1C(=O)NC(c2ccccc2)C1=O (centres undefined) [ETHOTOIN]
AC50 [7]: > 30 µM | AC50 [8]: > 30 µM

Cc1ccc(-c2ncc(Cl)cc2-c2ccc(S(C)(=O)=O)cc2)cn1 [ETORICOXIB]
AC50 [1]: > 30 µM | AC50 [2]: > 30 µM | AC50 [3]: > 30 µM | AC50 [4]: > 30 µM | AC50 (D(1A) dopamine receptor): > 10 µM | AC50 [5]: > 10 µM | AC50 (Estrogen receptor beta): > 30 µM | AC50 [6]: > 10 µM | AC50 (B1 bradykinin receptor): > 30 µM

Cc1cnc(Nc2ccc(OCCN3CCCC3)cc2)nc1Nc1cccc(S(=O)(=O)NC(C)(C)C)c1 [FEDRATINIB]
AC50 [6]: > 10 µM

N=C(N)NC(=O)Cc1c(Cl)cccc1Cl [GUANFACINE]
AC50 [6]: 11.5 µM | AC50 [8]: > 30 µM

CC1Cc2ccccc2N1NC(=O)c1ccc(Cl)c(S(N)(=O)=O)c1 (centres undefined) [INDAPAMIDE]
AC50 [6]: > 10 µM

CN1CCC(=C2c3ccccc3CC(=O)c3sccc32)CC1 [KETOTIFEN]
AC50 [5]: 0.432 µM

CCC(=O)O[C@H](CC(=O)O)C[N+](C)(C)C [LEVOCARNITINE PROPIONATE]
AC50 [7]: > 30 µM | AC50 [8]: > 30 µM

CCN(CC)CC(=O)Nc1c(C)cccc1C [LIDOCAINE]
AC50 [2]: > 30 µM | AC50 [3]: > 30 µM | AC50 [4]: > 30 µM | AC50 (Estrogen receptor beta): > 30 µM | AC50 (B1 bradykinin receptor): > 30 µM

O=C(O)c1nn(Cc2ccc(Cl)cc2Cl)c2ccccc12 [LONIDAMINE]
AC50 [7]: > 30 µM

Nc1cc(N2CCCCC2)nc(N)[n+]1[O-] [MINOXIDIL]
AC50 [6]: > 10 µM

COC(=O)c1ccc2c(c1)NC(=O)/C2=C(\Nc1ccc(N(C)C(=O)CN2CCN(C)CC2)cc1)c1ccccc1 [NINTEDANIB]
AC50 [7]: > 30 µM | AC50 [8]: > 30 µM

CS(=O)(=O)NC(=O)CCC/C=C\C[C@H]1C(=O)C[C@@H](O)[C@@H]1/C=C/[C@@H](O)COc1ccccc1 [SULPROSTONE]
AC50 [7]: > 30 µM | AC50 [8]: > 30 µM

CCCCCCCC(=O)CC[C@@H]1[C@@H](C/C=C\CCCC(=O)O)[C@@H](O)C[C@H]1O [UNOPROSTONE]
AC50 [7]: > 30 µM | AC50 [8]: > 30 µM

CCN(C(C)=O)c1cccc(-c2ccnc3c(C#N)cnn23)c1 [ZALEPLON]
AC50 [6]: > 10 µM

TEPRENONE
AC50 [6]: > 10 µM
